Converted amounts (≈) assume the structure as drawn.
How the values were obtained:
[1] = test system: K1; assay: Neutropenic mouse model of disseminated candidiasis; assay type: in vivo, ICR/Swiss mice; conditions: 48 hours; 72 mg/kg 5-FC
Protocol: The activity of each drug, alone and in combination, was evaluated in a neutropenic mouse model of disseminated candidiasis as described previously by D. Andes, et al., “Pharmacodynamics of amphotericin B in a neutropenic-mouse disseminated-candidiasis model,” Antimicrobial Agents and Chemotherapy, 45(3), 922-6 (2001).
For each treatment group, three six-week-old ICR/Swiss specific-pathogen-free female mice (Harlan Sprague Dawley, Madison, Wis.) were rendered neutropenic by multiple doses of cyclophosphamide. Animals were classified as neutropenic when polymorphonuclear leukocyte counts dropped below 100/mm^3. Infection was established by injecting 100 μL inoculum into the lateral tail vein. The inoculum was prepared by subculturing K1 on SDA plates for 24 hours at 35° C. Six colonies were dispersed into 5 mL of sterile pyrogen-free normal saline warmed to 35° C. and injected two hours prior to drug treatment. Antifungals (200 μL) were dosed intraperitoneally on the day of infection and 24 hours after the initial dose. […] The animals were euthanized by CO2 asphyxiation 48 hours after the initial drug treatment. […] After 24 hours of incubation at 35° C., colonies were counted. Results were expressed as the mean and standard deviation of the difference in viable fungal counts between the control group at zero hour (two hours post-infection) and each group at the 48 hour timepoint. […]

[2] = test system: C. albicans strain K1; assay: Minimum inhibitory concentration (MIC); assay type: cell-based; conditions: K1 (Example 6); for 5-FC the concentration inhibiting ≧50% by absorbance
Protocol: (§1) To prepare the inoculation, the fungal strains were cultured for approximately 24 hours on Sabouraud dextrose agar (SDA) plates were diluted to a 0.5 McFarland standard (1-5×10^6 CFU/mL) in sterile normal saline and diluted 100-fold in yeast peptone dextrose (YPD). Inoculum was added to serial dilutions of AmB in 96-well plates, following the microplate dilution method. Plates were sealed with Breathe Easier membranes (Sigma Aldrich, St. Louis, Mo.). ATCC 9763 or K1 was incubated at 30° C. or 37° C., respectively, for 18-20 hours. […] SDA was prepared with 1% peptone, 4% glucose, and 1.5% agar in deionized water. YPD media was prepared with 1% yeast extract, 2% peptone, and 2% glucose in deionized water. Autoclaving was used to sterilize media.
(§2) For 5-FC, the concentration necessary to inhibit ≧50% as determined by absorbance is reported.

[3] = test system: C. albicans Gu5 (ATCC MYA-574); assay: Minimum inhibitory concentration (MIC); assay type: cell-based; conditions: for 5-FC the concentration inhibiting ≧50% by absorbance
Protocol: as §1, §2

[4] = test system: C. albicans SC5314 (ATCC MYA-2876); assay: Minimum inhibitory concentration (MIC); assay type: cell-based; conditions: for 5-FC the concentration inhibiting ≧50% by absorbance
Protocol: as §1, §2

[5] = test system: bovine red blood cells; conditions: 5-FC alone, 25-100 μg/ml

With `Nc1nc(=O)[nH]cc1F` [5-FC, 5-fluorocytosine] as the molecule, how does the “fungal burden of the control group relative to treated group” value [1] read?
Its value is 1.2 times.

What about the MIC [2] of the same molecule?
Its MIC is 64 µg/mL (≈ 496 µM).

What about the MIC [3] of the same molecule?
The MIC was 81 µg/mL (≈ 627 µM).

And the MIC [4]?
The MIC was 20 µg/mL (≈ 155 µM).

What about the hemolytic activity [5] of the same molecule?
Its hemolytic activity is < 0.4%.
